Measured values: patent US11591355B2 (Peloton Therapeutics, Inc., priority 2017, dated 2023)

Assays:
[1] = target: T1, CD73 on U138 human neuroglioma cells (Homo sapiens, UniProt P21589); test: CD73 Cell-Based Assay; conditions: U138 cells, AMP substrate, 2 hours at 37° C., inorganic phosphate by malachite green
T1 construct: U138 cells were obtained from ATCC and cultured in DMEM with 10% FBS; host or cells: U138 human neuroglioma cells
T1 sequence (P21589 27-549): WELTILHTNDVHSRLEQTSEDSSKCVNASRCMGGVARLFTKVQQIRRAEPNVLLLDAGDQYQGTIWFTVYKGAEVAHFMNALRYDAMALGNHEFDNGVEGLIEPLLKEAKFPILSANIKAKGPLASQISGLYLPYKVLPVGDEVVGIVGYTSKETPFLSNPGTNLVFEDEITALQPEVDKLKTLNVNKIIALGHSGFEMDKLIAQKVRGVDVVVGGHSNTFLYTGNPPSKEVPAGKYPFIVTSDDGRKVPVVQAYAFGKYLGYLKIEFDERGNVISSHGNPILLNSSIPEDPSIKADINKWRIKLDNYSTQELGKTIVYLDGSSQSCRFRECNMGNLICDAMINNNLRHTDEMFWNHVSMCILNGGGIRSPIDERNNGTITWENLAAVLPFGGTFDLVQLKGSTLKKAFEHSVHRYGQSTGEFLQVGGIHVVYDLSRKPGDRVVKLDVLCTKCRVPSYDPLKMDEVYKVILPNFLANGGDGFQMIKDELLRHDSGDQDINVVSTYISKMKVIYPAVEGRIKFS
Procedure, shortened: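 Whole U138 cells washed free of phosphate were incubated with 200 μM AMP (mixture concentration before equal-volume addition) plus compound in HEPES-buffered saline, pH 7.4, for 2 h at 37 °C, 5% CO2. Adenosine-forming activity read as inorganic phosphate released into supernatant by malachite green.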

[2] = target: T2, Human CD73 (Homo sapiens, UniProt P21589); test: CD73 Enzyme Assay; assay type: biochemical; conditions: 0.25 nM hCD73, 25 μM AMP, kinetic read at 360 nm; read-out: CD73 Enzyme Assay IC50
T2 construct: purchased R&D Systems; host or cells: CHO cells
T2 sequence (P21589 27-549): T1 sequence (P21589 27-549)

| SMILES | IC50 [1] [nM] | IC50 [2] [nM] |
| --- | --- | --- |
| C[C@H](c1ccccc1)N(C)c1nc(Cl)nc2c1ncn2[C@@H]1O[C@H](COCP(=O)(O)O)[C@@H](O)[C@H]1O [Compound 104] | < 10 | 10 to 100 |
| C[C@H](Nc1nc(Cl)nc2c1ccn2[C@@H]1O[C@H](COCP(=O)(O)O)[C@@H](O)[C@H]1O)c1ccc(C(F)(F)F)cc1 [Compound 106, [(2R,3S,4R,5R)-5-[2-chloro-4-[[(1S)-1-[4-(trifluoromethyl)-phenyl]ethyl]amino]-pyrrolo[2,3-d]-pyrimidin-7-yl]-3,4-dihydroxy-tetrahydro-furan-2-yl]methoxy-methylphosphonic acid] | < 10 | < 10 |
| CN(C)c1nc(C#N)nc2c1ccn2[C@@H]1O[C@H](COCP(=O)(O)O)[C@@H](O)[C@H]1O [Compound 107, [(2R,3S,4R,5R)-5-[2-cyano-4-(dimethyl-amino)pyrrolo[2,3-d]-pyrimidin-7-yl]-3,4-dihydroxy-tetrahydro-furan-2-yl]methoxy-methylphosphonic acid] | 10 to 100 | 10 to 100 |
| CCNc1nc(C#N)nc2c1ccn2[C@@H]1O[C@H](COCP(=O)(O)O)[C@@H](O)[C@H]1O [Compound 108, [(2R,3S,4R,5R)-5-[2-cyano-4-(ethylamino)-pyrrolo[2,3-d]-pyrimidin-7-yl]-3,4-dihydroxy-tetrahydro-furan-2-yl]methoxy-methylphosphonic acid] | 10 to 100 | 10 to 100 |
| C[C@H](c1ccccc1)N(C)c1nc(C#N)nc2c1ncn2[C@@H]1O[C@H](COCP(=O)(O)O)[C@@H](O)[C@H]1O [Compound 113] | 10 to 100 | 10 to 100 |
| C[C@@H](Nc1nc(Cl)nc2c1ccn2[C@@H]1O[C@H](COCP(=O)(O)O)[C@@H](O)[C@H]1O)c1ccc(C(F)(F)F)cc1 [Compound 114, [(2R,3S,4R,5R)-5-[2-chloro-4-[[(1R)-1-[4-(trifluoromethyl)-phenyl]ethyl]amino]-pyrrolo[2,3-d]-pyrimidin-7-yl]-3,4-dihydroxy-tetrahydro-furan-2-yl]methoxy-methylphosphonic acid] | < 10 | 10 to 100 |
| C[C@@H](Nc1nc(C#N)nc2c1ccn2[C@@H]1O[C@H](COCP(=O)(O)O)[C@@H](O)[C@H]1O)c1ccc(C(F)(F)F)cc1 [Compound 115, [(2R,3S,4R,5R)-5-[2-cyano-4-[[(1R)-1-[4-(trifluoromethyl)-phenyl]ethyl]amino]-pyrrolo[2,3-d]-pyrimidin-7-yl]-3,4-dihydroxy-tetrahydro-furan-2-yl]methoxy-methylphosphonic acid] | 10 to 100 | < 10 |
| C[C@H](Nc1nc(Cl)nc2c1ccn2[C@@H]1O[C@H](COCP(=O)(O)O)[C@@H](O)[C@H]1O)c1ccc(F)cc1F [Compound 116, [(2R,3S,4R,5R)-5-[2-chloro-4-[[(1S)-1-(2,4-difluorophenyl)-ethyl]amino]pyrrolo-[2,3-d]pyrimidin-7-yl]-3,4-dihydroxy-tetrahydrofuran-2-yl]methoxymethyl-phosphonic acid] | < 10 | < 10 |
| C[C@H](Nc1nc(Cl)nc2c1ccn2[C@@H]1O[C@H](COCP(=O)(O)O)[C@@H](O)[C@H]1O)c1ccc(C#N)cc1 [Compound 117, [(2R,3S,4R,5R)-5-[2-chloro-4-[[(1S)-1-(4-cyanophenyl)ethyl]-amino]pyrrolo[2,3-d]-pyrimidin-7-yl]-3,4-dihydroxy-tetrahydro-furan-2-yl]methoxy-methylphosphonic acid] | < 10 | 10 to 100 |

Now from value to compound:

| IC50 [1] [nM] | IC50 [2] [nM] | SMILES |
| --- | --- | --- |
| < 10 | 10 to 100 | CC(C)Nc1nc(C#N)nc2c1ccn2[C@@H]1O[C@H](COCP(=O)(O)O)[C@@H](O)[C@H]1O [Compound 97, [(2R,3S,4R,5R)-5-[2-cyano-4-(isopropyl-amino)pyrrolo[2,3-d]-pyrimidin-7-yl]-3,4-dihydroxy-tetrahydro-furan-2-yl]methoxy-methylphosphonic acid] |
| 10 to 100 | 10 to 100 | CCNc1nc(Cl)nc2c1ccn2[C@@H]1O[C@H](COCP(=O)(O)O)[C@@H](O)[C@H]1O [Compound 98, [(2R,3S,4R,5R)-5-[2-chloro-4-(ethylamino)-pyrrolo[2,3-d]-pyrimidin-7-yl]-3,4-dihydroxy-tetrahydro-furan-2-yl]methoxy-methylphosphonic acid] |
| 10 to 100 | 10 to 100 | O=P(O)(O)COC[C@H]1O[C@@H](n2ccc3c(NC4CCOCC4)nc(Cl)nc32)[C@H](O)[C@@H]1O [Compound 99, [(2R,3S,4R,5R)-5-[2-chloro-4-(tetrahydro-pyran-4-ylamino)-pyrrolo[2,3-d]-pyrimidin-7-yl]-3,4-dihydroxy-tetrahydro-furan-2-yl]methoxy-methylphosphonic acid] |
| 10 to 100 | 10 to 100 | O=P(O)(O)COC[C@H]1O[C@@H](n2ccc3c(N4CCOCC4)nc(Cl)nc32)[C@H](O)[C@@H]1O [Compound 100, [(2R,3S,4R,5R)-5-(2-chloro-4-morpholino-pyrrolo[2,3-d]-pyrimidin-7-yl)-3,4-dihydroxy-tetrahydro-furan-2-yl]methoxy-methylphosphonic acid] |
| < 10 | < 10 | O=P(O)(O)COC[C@H]1O[C@@H](n2ccc3c(NC4CCC(F)(F)C4)nc(Cl)nc32)[C@H](O)[C@@H]1O (stereo partly drawn) [Compound 101, [(2R,3S,4R,5R)-5-[2-chloro-4-[(3,3-difluoro-cyclopentyl)amino]-pyrrolo[2,3-d]-pyrimidin-7-yl]-3,4-dihydroxy-tetrahydro-furan-2-yl]methoxy-methylphosphonic acid] |
| < 10 | < 10 | O=P(O)(O)COC[C@H]1O[C@@H](n2ccc3c(NC4CC5CC5C4)nc(Cl)nc32)[C@H](O)[C@@H]1O (stereo partly drawn) [Compound 102, [(2R,3S,4R,5R)-5-[4-(3-bicyclo[3.1.0]-hexanylamino)-2-chloro-pyrrolo[2,3-d]-pyrimidin-7-yl]-3,4-dihydroxy-tetrahydro-furan-2-yl]methoxy-methylphosphonic acid] |
| < 10 | < 10 | O=P(O)(O)COC[C@H]1O[C@@H](n2ccc3c(N4CC5CCCC5C4)nc(Cl)nc32)[C@H](O)[C@@H]1O (stereo partly drawn) [Compound 103, [(2R,3S,4R,5R)-5-[4-(3,3a,4,5,6,6a-hexa-hydro-1H-cyclopenta-[c]pyrrol-2-yl)-2-chloro-pyrrolo[2,3-d]-pyrimidin-7-yl]-3,4-dihydroxy-tetrahydro-furan-2-yl]methoxy-methylphosphonic acid] |
| < 10 | < 10 | O=P(O)(O)COC[C@H]1O[C@@H](n2ccc3c(N4CC5CC5C4)nc(Cl)nc32)[C@H](O)[C@@H]1O (stereo partly drawn) [Compound 105, [(2R,3S,4R,5R)-5-[4-(3-azabicyclo[3.1.0]-hexan-3-yl)-2-chloro-pyrrolo[2,3-d]-pyrimidin-7-yl]-3,4-dihydroxy-tetrahydro-furan-2-yl]methoxy-methylphosphonic acid] |
| < 10 | < 10 | O=P(O)(O)COC[C@H]1O[C@@H](n2ccc3c(NC4CCC4)nc(Cl)nc32)[C@H](O)[C@@H]1O [Compound 109, [(2R,3S,4R,5R)-5-[2-chloro-4-(cyclobutyl-amino)pyrrolo[2,3-d]-pyrimidin-7-yl]-3,4-dihydroxy-tetrahydro-furan-2-yl]methoxy-methylphosphonic acid] |
| < 10 | < 10 | N#Cc1nc(NC2CCC2)c2ccn([C@@H]3O[C@H](COCP(=O)(O)O)[C@@H](O)[C@H]3O)c2n1 [Compound 110, [(2R,3S,4R,5R)-5-[2-cyano-4-(cyclobutyl-amino)pyrrolo[2,3-d]-pyrimidin-7-yl]-3,4-dihydroxy-tetrahydro-furan-2-yl]methoxy-methylphosphonic acid] |
| < 10 | < 10 | O=P(O)(O)COC[C@H]1O[C@@H](n2ccc3c(NC4CCCCC4)nc(Cl)nc32)[C@H](O)[C@@H]1O [Compound 111, [(2R,3S,4R,5R)-5-[2-chloro-4-(cyclohexyl-amino)pyrrolo[2,3-d]-pyrimidin-7-yl]-3,4-dihydroxy-tetrahydro-furan-2-yl]methoxy-methylphosphonic acid] |
| 10 to 100 | 10 to 100 | O=P(O)(O)COC[C@H]1O[C@@H](n2ccc3c(N4CCC4)nc(Cl)nc32)[C@H](O)[C@@H]1O [Compound 112, [(2R,3S,4R,5R)-5-[4-(azetidin-1-yl)-2-chloro-pyrrolo[2,3-d]-pyrimidin-7-yl]-3,4-dihydroxy-tetrahydro-furan-2-yl]methoxy-methylphosphonic acid] |
| < 10 | < 10 | N#Cc1nc(NC2CCCCC2)c2ccn([C@@H]3O[C@H](COCP(=O)(O)O)[C@@H](O)[C@H]3O)c2n1 [Compound 119, [(2R,3S,4R,5R)-5-[2-cyano-4-(cyclohexyl-amino)pyrrolo[2,3-d]-pyrimidin-7-yl]-3,4-dihydroxy-tetrahydro-furan-2-yl]methoxy-methylphosphonic acid] |
